{"source": "paper doi:10.1101/2020.06.11.145995v1", "about": "(biorxiv, 2020)", "experiment_in_all_cases": "biochemical", "key": {"TXK": {"biological_target": "TXK (Homo sapiens, UniProt P42681)"}, "NEK6": {"biological_target": "NEK6 (Homo sapiens, UniProt Q9HC98)"}, "YSK1": {"biological_target": "YSK1 (Homo sapiens, UniProt O00506)"}, "PLK3": {"biological_target": "PLK3 (Homo sapiens, UniProt Q9H4B4)"}, "SBK1": {"biological_target": "SBK1 (Homo sapiens, UniProt Q52WX2)"}, "TGFBR2": {"biological_target": "TGFBR2 (Homo sapiens, UniProt P37173)"}, "PIK3C2G": {"biological_target": "PIK3C2G (Homo sapiens, UniProt O75747)"}, "ZAP70": {"biological_target": "ZAP70 (Homo sapiens, UniProt P43403)"}, "TLK2": {"biological_target": "TLK2 (Homo sapiens, UniProt Q86UE8)", "sequence (Q86UE8 whole entry)": "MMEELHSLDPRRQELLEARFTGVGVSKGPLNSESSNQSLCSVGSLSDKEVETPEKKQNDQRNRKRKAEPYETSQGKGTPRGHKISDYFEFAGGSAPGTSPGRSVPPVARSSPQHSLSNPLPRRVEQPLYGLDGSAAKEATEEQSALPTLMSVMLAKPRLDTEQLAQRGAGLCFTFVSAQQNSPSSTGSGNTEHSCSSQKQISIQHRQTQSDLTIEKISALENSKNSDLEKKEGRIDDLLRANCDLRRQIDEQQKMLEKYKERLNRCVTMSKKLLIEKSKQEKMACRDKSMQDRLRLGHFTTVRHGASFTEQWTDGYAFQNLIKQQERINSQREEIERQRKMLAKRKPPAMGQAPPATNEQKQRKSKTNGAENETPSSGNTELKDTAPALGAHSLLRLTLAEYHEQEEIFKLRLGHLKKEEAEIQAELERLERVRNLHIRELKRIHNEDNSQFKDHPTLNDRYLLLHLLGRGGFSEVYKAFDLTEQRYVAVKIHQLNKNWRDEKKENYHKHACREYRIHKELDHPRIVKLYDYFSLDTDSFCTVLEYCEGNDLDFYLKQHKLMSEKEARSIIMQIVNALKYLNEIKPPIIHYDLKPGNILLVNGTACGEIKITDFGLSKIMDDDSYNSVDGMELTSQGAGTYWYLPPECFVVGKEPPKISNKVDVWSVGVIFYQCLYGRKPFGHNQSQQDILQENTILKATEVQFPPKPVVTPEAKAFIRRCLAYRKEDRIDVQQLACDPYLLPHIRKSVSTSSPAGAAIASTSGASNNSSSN"}, "VEGFR2": {"biological_target": "VEGFR2 (Homo sapiens, UniProt P35968)"}, "PCTK2": {"biological_target": "PCTK2 (Homo sapiens, UniProt Q00537)"}, "PRKD2": {"biological_target": "PRKD2 (Homo sapiens, UniProt Q9BZL6)"}, "p38-alpha": {"biological_target": "p38-alpha (Homo sapiens, UniProt Q16539)"}, "SGK3": {"biological_target": "SGK3 (Homo sapiens, UniProt Q96BR1)"}, "RSK4": {"biological_target": "RSK4 (Homo sapiens, UniProt Q9UK32)", "sequence (Q9UK32 whole entry)": "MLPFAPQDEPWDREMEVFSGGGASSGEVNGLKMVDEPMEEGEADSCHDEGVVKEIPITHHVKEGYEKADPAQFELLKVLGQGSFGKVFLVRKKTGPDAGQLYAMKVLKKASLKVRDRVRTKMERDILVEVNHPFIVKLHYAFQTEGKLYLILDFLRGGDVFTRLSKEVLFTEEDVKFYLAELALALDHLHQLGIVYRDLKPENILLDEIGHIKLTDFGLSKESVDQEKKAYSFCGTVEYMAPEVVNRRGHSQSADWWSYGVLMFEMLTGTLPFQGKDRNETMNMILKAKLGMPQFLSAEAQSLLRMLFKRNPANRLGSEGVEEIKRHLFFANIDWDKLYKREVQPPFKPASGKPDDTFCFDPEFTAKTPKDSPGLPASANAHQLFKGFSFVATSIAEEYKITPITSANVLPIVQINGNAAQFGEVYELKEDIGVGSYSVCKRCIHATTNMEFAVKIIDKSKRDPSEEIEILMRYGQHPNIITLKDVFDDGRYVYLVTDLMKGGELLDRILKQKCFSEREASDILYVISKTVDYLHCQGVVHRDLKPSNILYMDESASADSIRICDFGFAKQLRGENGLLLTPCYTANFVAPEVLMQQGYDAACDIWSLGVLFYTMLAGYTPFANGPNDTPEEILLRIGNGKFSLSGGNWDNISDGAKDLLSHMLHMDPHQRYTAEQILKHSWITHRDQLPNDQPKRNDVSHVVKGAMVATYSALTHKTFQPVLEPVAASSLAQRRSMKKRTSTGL"}, "PIK3CA(E545K)": {"biological_target": "PIK3CA(E545K) (Homo sapiens, UniProt P42336, E545K)"}, "PRKG1": {"biological_target": "PRKG1 (Homo sapiens, UniProt Q13976)", "sequence (Q13976 whole entry)": "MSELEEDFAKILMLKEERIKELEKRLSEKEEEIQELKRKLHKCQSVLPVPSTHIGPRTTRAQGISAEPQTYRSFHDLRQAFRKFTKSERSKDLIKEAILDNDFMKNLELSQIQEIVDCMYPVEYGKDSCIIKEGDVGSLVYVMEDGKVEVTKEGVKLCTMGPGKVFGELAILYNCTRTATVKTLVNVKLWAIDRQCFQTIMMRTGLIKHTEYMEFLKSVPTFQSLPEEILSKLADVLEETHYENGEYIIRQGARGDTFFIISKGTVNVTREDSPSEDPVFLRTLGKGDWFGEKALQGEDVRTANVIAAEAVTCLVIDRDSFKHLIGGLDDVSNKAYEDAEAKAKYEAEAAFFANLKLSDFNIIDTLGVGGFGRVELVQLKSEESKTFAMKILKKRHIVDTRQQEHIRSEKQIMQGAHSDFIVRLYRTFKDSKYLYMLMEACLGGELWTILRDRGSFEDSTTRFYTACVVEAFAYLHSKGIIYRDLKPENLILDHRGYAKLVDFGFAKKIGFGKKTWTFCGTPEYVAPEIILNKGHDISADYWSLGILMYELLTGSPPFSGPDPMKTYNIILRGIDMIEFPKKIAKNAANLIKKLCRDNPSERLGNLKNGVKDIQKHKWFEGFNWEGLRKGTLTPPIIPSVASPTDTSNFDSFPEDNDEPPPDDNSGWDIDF"}, "AAK1": {"biological_target": "AAK1 (Homo sapiens, UniProt Q2M2I8)"}, "PAK2": {"biological_target": "PAK2 (Homo sapiens, UniProt Q13177)"}, "PIK3CA(C420R)": {"biological_target": "PIK3CA(C420R) (Homo sapiens, UniProt P42336, C420R)"}, "TRPM6": {"biological_target": "TRPM6 (Homo sapiens, UniProt Q9BX84)"}, "S6K1": {"biological_target": "S6K1 (Homo sapiens, UniProt P23443)"}, "RIPK2": {"biological_target": "RIPK2 (Homo sapiens, UniProt O43353)"}, "PRKD3": {"biological_target": "PRKD3 (Homo sapiens, UniProt O94806)"}, "PIK3CA(I800L)": {"biological_target": "PIK3CA(I800L) (Homo sapiens, UniProt P42336, I800L)", "sequence (P42336 whole entry I800L)": "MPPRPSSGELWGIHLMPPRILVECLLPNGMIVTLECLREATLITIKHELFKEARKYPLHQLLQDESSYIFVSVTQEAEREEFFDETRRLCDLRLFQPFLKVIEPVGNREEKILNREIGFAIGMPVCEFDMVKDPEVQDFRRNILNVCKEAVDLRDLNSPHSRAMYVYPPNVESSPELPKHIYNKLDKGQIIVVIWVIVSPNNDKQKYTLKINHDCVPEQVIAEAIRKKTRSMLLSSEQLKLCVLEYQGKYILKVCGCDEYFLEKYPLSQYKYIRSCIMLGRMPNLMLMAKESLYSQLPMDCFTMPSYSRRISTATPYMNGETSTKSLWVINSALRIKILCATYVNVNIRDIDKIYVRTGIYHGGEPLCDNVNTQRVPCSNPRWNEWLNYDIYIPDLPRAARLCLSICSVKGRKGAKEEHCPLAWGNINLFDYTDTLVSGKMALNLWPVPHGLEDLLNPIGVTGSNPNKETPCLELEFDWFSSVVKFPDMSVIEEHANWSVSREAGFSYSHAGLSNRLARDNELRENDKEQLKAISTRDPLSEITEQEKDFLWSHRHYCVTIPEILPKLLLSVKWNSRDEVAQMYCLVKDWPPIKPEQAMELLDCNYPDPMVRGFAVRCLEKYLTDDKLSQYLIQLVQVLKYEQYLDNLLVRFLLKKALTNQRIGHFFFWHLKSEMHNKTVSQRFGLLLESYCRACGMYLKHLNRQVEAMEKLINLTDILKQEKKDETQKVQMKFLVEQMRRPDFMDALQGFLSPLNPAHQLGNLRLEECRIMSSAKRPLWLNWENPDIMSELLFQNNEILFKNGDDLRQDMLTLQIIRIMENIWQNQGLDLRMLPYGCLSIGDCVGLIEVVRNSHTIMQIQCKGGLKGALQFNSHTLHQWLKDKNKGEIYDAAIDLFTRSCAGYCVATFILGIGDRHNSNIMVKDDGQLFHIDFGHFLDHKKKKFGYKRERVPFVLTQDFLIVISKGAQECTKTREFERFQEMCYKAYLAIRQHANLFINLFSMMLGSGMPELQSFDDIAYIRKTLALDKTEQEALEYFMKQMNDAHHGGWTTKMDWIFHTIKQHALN"}, "YES": {"biological_target": "YES (Homo sapiens, UniProt P07947)", "sequence (P07947 whole entry)": "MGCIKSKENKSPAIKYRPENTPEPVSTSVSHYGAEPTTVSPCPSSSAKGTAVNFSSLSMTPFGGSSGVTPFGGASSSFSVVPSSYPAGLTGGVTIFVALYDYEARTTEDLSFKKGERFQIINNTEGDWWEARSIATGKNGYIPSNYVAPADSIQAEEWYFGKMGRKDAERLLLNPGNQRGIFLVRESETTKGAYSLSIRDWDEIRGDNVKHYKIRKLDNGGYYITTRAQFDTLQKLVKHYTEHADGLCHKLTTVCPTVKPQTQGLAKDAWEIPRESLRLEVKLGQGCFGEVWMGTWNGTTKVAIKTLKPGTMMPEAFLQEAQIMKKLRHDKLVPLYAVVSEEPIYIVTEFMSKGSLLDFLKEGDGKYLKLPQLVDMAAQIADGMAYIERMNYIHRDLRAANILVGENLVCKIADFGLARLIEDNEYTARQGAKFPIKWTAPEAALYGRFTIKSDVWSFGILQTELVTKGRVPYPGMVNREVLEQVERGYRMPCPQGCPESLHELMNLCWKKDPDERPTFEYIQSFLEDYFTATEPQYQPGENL"}, "RPS6KA4": {"biological_target": "RPS6KA4 (Homo sapiens, UniProt O75676)", "sequence (O75676 whole entry)": "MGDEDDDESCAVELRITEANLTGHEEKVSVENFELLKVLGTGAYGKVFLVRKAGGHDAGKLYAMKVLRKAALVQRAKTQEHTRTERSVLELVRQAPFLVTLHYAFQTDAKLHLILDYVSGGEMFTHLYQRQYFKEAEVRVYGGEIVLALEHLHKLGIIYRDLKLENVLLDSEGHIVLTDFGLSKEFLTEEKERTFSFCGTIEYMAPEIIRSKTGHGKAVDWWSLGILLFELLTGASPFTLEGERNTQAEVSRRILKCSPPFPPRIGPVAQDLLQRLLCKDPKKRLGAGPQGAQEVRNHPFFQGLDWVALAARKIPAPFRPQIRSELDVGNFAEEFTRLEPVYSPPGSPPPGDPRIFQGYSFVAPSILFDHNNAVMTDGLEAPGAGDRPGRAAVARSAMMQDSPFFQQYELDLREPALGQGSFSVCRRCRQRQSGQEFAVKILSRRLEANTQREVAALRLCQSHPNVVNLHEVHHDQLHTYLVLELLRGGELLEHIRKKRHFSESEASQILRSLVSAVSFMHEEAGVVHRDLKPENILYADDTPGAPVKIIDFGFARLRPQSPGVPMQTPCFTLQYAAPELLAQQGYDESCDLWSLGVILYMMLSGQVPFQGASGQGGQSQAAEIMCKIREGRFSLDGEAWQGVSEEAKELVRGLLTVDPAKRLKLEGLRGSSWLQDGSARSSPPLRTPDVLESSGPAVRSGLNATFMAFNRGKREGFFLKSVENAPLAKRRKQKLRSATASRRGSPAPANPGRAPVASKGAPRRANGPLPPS"}, "TAK1": {"biological_target": "TAK1 (Homo sapiens, UniProt O43318)"}, "SRMS": {"biological_target": "SRMS (Homo sapiens, UniProt Q9H3Y6)", "sequence (Q9H3Y6 whole entry)": "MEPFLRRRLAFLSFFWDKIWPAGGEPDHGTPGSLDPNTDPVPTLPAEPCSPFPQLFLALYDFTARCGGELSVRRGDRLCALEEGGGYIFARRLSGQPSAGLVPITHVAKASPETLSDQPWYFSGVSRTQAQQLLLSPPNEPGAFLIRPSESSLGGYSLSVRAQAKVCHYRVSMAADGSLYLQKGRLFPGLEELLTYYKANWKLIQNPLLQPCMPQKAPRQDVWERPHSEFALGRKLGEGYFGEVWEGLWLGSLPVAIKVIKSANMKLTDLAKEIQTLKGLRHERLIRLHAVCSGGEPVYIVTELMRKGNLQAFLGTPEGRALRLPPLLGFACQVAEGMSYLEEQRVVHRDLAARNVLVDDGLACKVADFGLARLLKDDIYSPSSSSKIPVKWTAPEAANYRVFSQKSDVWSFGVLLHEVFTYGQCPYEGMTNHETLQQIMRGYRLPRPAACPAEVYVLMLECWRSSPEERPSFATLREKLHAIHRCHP"}, "[1]": {"conditions": "read-out: HYJ-2-002-1 (1μM) % control"}, "[2]": {"conditions": "read-out: HYJ-2-002-1 (1μM) % control, Kin.Dom.1-N-terminal"}, "[3]": {"conditions": "read-out: HYJ-2-002-1 (1μM) % control, Kin.Dom.2-C-terminal"}, "[4]": {"conditions": "read-out: CPT-1-70-1 (1μM) % control"}, "[5]": {"conditions": "read-out: CPT-1-70-1 (1μM) % control, Kin.Dom.1-N-terminal"}, "[6]": {"conditions": "read-out: CPT-1-70-1 (1μM) % control, Kin.Dom.2-C-terminal"}}, "note": "Where two headings read alike, the source gives them in different places."}
{"smiles": "CCN1CCN(Cc2ccc(NC(=O)c3ccc(C)c(CCc4cnc5[nH]ccc5c4OC)c3)cc2C(F)(F)F)CC1", "note": "[HYJ-2-002-1]", "values": [{"measurement": "remaining activity at 1 µM", "setting": "TXK; [1]", "result": 2.1, "unit": "%"}, {"measurement": "remaining activity at 1 µM", "setting": "NEK6; [1]", "result": 100, "unit": "%"}, {"measurement": "remaining activity at 1 µM", "setting": "YSK1; [1]", "result": 87, "unit": "%"}, {"measurement": "remaining activity at 1 µM", "setting": "PLK3; [1]", "result": 100, "unit": "%"}, {"measurement": "remaining activity at 1 µM", "setting": "SBK1; [1]", "result": 93, "unit": "%"}, {"measurement": "remaining activity at 1 µM", "setting": "TGFBR2; [1]", "result": 41, "unit": "%"}, {"measurement": "remaining activity at 1 µM", "setting": "PIK3C2G; [1]", "result": 100, "unit": "%"}, {"measurement": "remaining activity at 1 µM", "setting": "ZAP70; [1]", "result": 69, "unit": "%"}, {"measurement": "remaining activity at 1 µM", "setting": "TLK2; [1]", "result": 97, "unit": "%"}, {"measurement": "remaining activity at 1 µM", "setting": "VEGFR2; [1]", "result": 6.4, "unit": "%"}, {"measurement": "remaining activity at 1 µM", "setting": "PCTK2; [1]", "result": 100, "unit": "%"}, {"measurement": "remaining activity at 1 µM", "setting": "PRKD2; [1]", "result": 42, "unit": "%"}, {"measurement": "remaining activity at 1 µM", "setting": "p38-alpha; [1]", "result": 0.25, "unit": "%"}, {"measurement": "remaining activity at 1 µM", "setting": "SGK3; [1]", "result": 100, "unit": "%"}, {"measurement": "remaining activity at 1 µM", "setting": "RSK4; [2]", "result": 100, "unit": "%"}, {"measurement": "remaining activity at 1 µM", "setting": "RSK4; [3]", "result": 28, "unit": "%"}, {"measurement": "remaining activity at 1 µM", "setting": "PIK3CA(E545K); [1]", "result": 100, "unit": "%"}, {"measurement": "remaining activity at 1 µM", "setting": "PRKG1; [1]", "result": 100, "unit": "%"}, {"measurement": "remaining activity at 1 µM", "setting": "AAK1; [1]", "result": 100, "unit": "%"}, {"measurement": "remaining activity at 1 µM", "setting": "PAK2; [1]", "result": 99, "unit": "%"}, {"measurement": "remaining activity at 1 µM", "setting": "PIK3CA(C420R); [1]", "result": 100, "unit": "%"}, {"measurement": "remaining activity at 1 µM", "setting": "TRPM6; [1]", "result": 100, "unit": "%"}, {"measurement": "remaining activity at 1 µM", "setting": "S6K1; [1]", "result": 55, "unit": "%"}, {"measurement": "remaining activity at 1 µM", "setting": "RIPK2; [1]", "result": 5.3, "unit": "%"}, {"measurement": "remaining activity at 1 µM", "setting": "PRKD3; [1]", "result": 67, "unit": "%"}, {"measurement": "remaining activity at 1 µM", "setting": "PIK3CA(I800L); [1]", "result": 100, "unit": "%"}, {"measurement": "remaining activity at 1 µM", "setting": "YES; [1]", "result": 0.55, "unit": "%"}, {"measurement": "remaining activity at 1 µM", "setting": "RPS6KA4; [2]", "result": 99, "unit": "%"}, {"measurement": "remaining activity at 1 µM", "setting": "RPS6KA4; [3]", "result": 100, "unit": "%"}, {"measurement": "remaining activity at 1 µM", "setting": "TAK1; [1]", "result": 6.6, "unit": "%"}, {"measurement": "remaining activity at 1 µM", "setting": "SRMS; [1]", "result": 8.4, "unit": "%"}]}
{"smiles": "CN1CCN(c2ccc(Nc3nc(Oc4ccc(NC(=O)CCl)cc4)c4cc[nH]c4n3)cc2)CC1", "note": "[CPT1-70-1]", "values": [{"measurement": "remaining activity at 1 µM", "setting": "TXK; [4]", "result": 4.6, "unit": "%"}, {"measurement": "remaining activity at 1 µM", "setting": "NEK6; [4]", "result": 100, "unit": "%"}, {"measurement": "remaining activity at 1 µM", "setting": "YSK1; [4]", "result": 89, "unit": "%"}, {"measurement": "remaining activity at 1 µM", "setting": "PLK3; [4]", "result": 100, "unit": "%"}, {"measurement": "remaining activity at 1 µM", "setting": "SBK1; [4]", "result": 10, "unit": "%"}, {"measurement": "remaining activity at 1 µM", "setting": "TGFBR2; [4]", "result": 100, "unit": "%"}, {"measurement": "remaining activity at 1 µM", "setting": "PIK3C2G; [4]", "result": 100, "unit": "%"}, {"measurement": "remaining activity at 1 µM", "setting": "ZAP70; [4]", "result": 0.2, "unit": "%"}, {"measurement": "remaining activity at 1 µM", "setting": "TLK2; [4]", "result": 100, "unit": "%"}, {"measurement": "remaining activity at 1 µM", "setting": "VEGFR2; [4]", "result": 40, "unit": "%"}, {"measurement": "remaining activity at 1 µM", "setting": "PCTK2; [4]", "result": 100, "unit": "%"}, {"measurement": "remaining activity at 1 µM", "setting": "PRKD2; [4]", "result": 70, "unit": "%"}, {"measurement": "remaining activity at 1 µM", "setting": "p38-alpha; [4]", "result": 100, "unit": "%"}, {"measurement": "remaining activity at 1 µM", "setting": "SGK3; [4]", "result": 74, "unit": "%"}, {"measurement": "remaining activity at 1 µM", "setting": "RSK4; [5]", "result": 45, "unit": "%"}, {"measurement": "remaining activity at 1 µM", "setting": "RSK4; [6]", "result": 100, "unit": "%"}, {"measurement": "remaining activity at 1 µM", "setting": "PIK3CA(E545K); [4]", "result": 84, "unit": "%"}, {"measurement": "remaining activity at 1 µM", "setting": "PRKG1; [4]", "result": 100, "unit": "%"}, {"measurement": "remaining activity at 1 µM", "setting": "AAK1; [4]", "result": 18, "unit": "%"}, {"measurement": "remaining activity at 1 µM", "setting": "PAK2; [4]", "result": 64, "unit": "%"}, {"measurement": "remaining activity at 1 µM", "setting": "PIK3CA(C420R); [4]", "result": 100, "unit": "%"}, {"measurement": "remaining activity at 1 µM", "setting": "TRPM6; [4]", "result": 48, "unit": "%"}, {"measurement": "remaining activity at 1 µM", "setting": "S6K1; [4]", "result": 100, "unit": "%"}, {"measurement": "remaining activity at 1 µM", "setting": "RIPK2; [4]", "result": 100, "unit": "%"}, {"measurement": "remaining activity at 1 µM", "setting": "PRKD3; [4]", "result": 54, "unit": "%"}, {"measurement": "remaining activity at 1 µM", "setting": "PIK3CA(I800L); [4]", "result": 100, "unit": "%"}, {"measurement": "remaining activity at 1 µM", "setting": "YES; [4]", "result": 17, "unit": "%"}, {"measurement": "remaining activity at 1 µM", "setting": "RPS6KA4; [5]", "result": 100, "unit": "%"}, {"measurement": "remaining activity at 1 µM", "setting": "RPS6KA4; [6]", "result": 79, "unit": "%"}, {"measurement": "remaining activity at 1 µM", "setting": "TAK1; [4]", "result": 3.6, "unit": "%"}, {"measurement": "remaining activity at 1 µM", "setting": "SRMS; [4]", "result": 100, "unit": "%"}]}
